EC50 and IC50 data for ten compounds are collected here from PMC12667739 (ACS infectious diseases, 2025).

The first experiment addresses T1, ComD (Streptococcus gordonii, UniProt O33646). As to the kind of experiment: cell-based.
One may read the EC50 as the concentration needed to bring the measured effect to its halfway point. With `CC[C@H](C)[C@H](NC(=O)[C@H](CCCNC(=N)N)NC(=O)[C@H](C)NC(=O)[C@H](CCCNC(=N)N)NC(=O)[C@@H](NC(=O)[C@@H](N)CC(=O)O)[C@@H](C)CC)C(=O)N[C@@H](CC(N)=O)C(=O)N[C@@H](CC(N)=O)C(=O)N[C@@H](CO)C(=O)N[C@H](C(=O)N[C@@H](Cc1c[nH]c2ccccc12)C(=O)N[C@@H](CCCNC(=N)N)C(=O)N[C@@H](CC(=O)O)C(=O)N[C@H](C(=O)N[C@@H](Cc1ccccc1)C(=O)N[C@@H](CC(C)C)C(=O)N[C@@H](CCCCN)C(=O)N[C@@H](CCCNC(=N)N)C(=O)N[C@@H](CCCCN)C(=O)O)[C@@H](C)CC)[C@@H](C)CC` [Peptide H4A], the EC50 is 722 nM. The compound `CC[C@H](C)[C@H](NC(=O)[C@H](CC(=O)O)NC(=O)[C@H](CCCNC(=N)N)NC(=O)[C@H](Cc1c[nH]c2ccccc12)NC(=O)[C@@H](NC(=O)[C@H](CO)NC(=O)[C@H](CC(N)=O)NC(=O)[C@H](CC(N)=O)NC(=O)[C@@H](NC(=O)[C@H](CCCNC(=N)N)NC(=O)[C@H](Cc1c[nH]cn1)NC(=O)[C@H](CCCNC(=N)N)NC(=O)[C@@H](NC(=O)[C@@H](N)CC(=O)O)[C@@H](C)CC)[C@@H](C)CC)[C@@H](C)CC)C(=O)N[C@@H](Cc1ccccc1)C(=O)N[C@@H](CC(C)C)C(=O)N[C@@H](C)C(=O)N[C@@H](CCCNC(=N)N)C(=O)N[C@@H](CCCCN)C(=O)O` [Peptide K17A] returned an EC50 of 426 nM. `CC[C@H](C)[C@H](NC(=O)[C@H](CC(=O)O)NC(=O)[C@H](CCCNC(=N)N)NC(=O)[C@H](Cc1c[nH]c2ccccc12)NC(=O)[C@@H](NC(=O)[C@H](CO)NC(=O)[C@H](CC(N)=O)NC(=O)[C@H](CC(N)=O)NC(=O)[C@@H](NC(=O)[C@H](CCCNC(=N)N)NC(=O)[C@H](Cc1c[nH]cn1)NC(=O)[C@H](CCCNC(=N)N)NC(=O)[C@@H](NC(=O)[C@@H](N)CC(=O)O)[C@@H](C)CC)[C@@H](C)CC)[C@@H](C)CC)C(=O)N[C@@H](Cc1ccccc1)C(=O)N[C@@H](CC(C)C)C(=O)N[C@@H](CCCCN)C(=O)N[C@@H](CCCNC(=N)N)C(=O)N[C@@H](C)C(=O)O` [Peptide K19A]: the EC50 worked out at 272 nM. Turning to `CC[C@H](C)[C@H](NC(=O)[C@H](CC(=O)O)NC(=O)[C@H](CCCNC(=N)N)NC(=O)[C@H](Cc1c[nH]c2ccccc12)NC(=O)[C@@H](NC(=O)[C@H](CO)NC(=O)[C@H](CC(N)=O)NC(=O)[C@H](CC(N)=O)NC(=O)[C@@H](NC(=O)[C@H](CCCNC(=N)N)NC(=O)[C@H](Cc1c[nH]cn1)NC(=O)[C@H](CCCNC(=N)N)NC(=O)[C@@H](NC(=O)[C@@H](N)CC(=O)O)[C@@H](C)CC)[C@@H](C)CC)[C@@H](C)CC)C(=O)N[C@@H](Cc1ccccc1)C(=O)N[C@@H](C)C(=O)N[C@@H](CCCCN)C(=O)N[C@@H](CCCNC(=N)N)C(=O)N[C@@H](CCCCN)C(=O)O` [Peptide L16A], the response was half-maximal at 127 nM (EC50). This EC50 is about 2.1-fold lower than that of the compound before. Consider `CC[C@H](C)[C@H](NC(=O)[C@H](CCCNC(=N)N)NC(=O)[C@H](Cc1c[nH]cn1)NC(=O)[C@H](CCCNC(=N)N)NC(=O)[C@@H](NC(=O)[C@@H](N)CC(=O)O)[C@@H](C)CC)C(=O)N[C@@H](C)C(=O)N[C@@H](CC(N)=O)C(=O)N[C@@H](CO)C(=O)N[C@H](C(=O)N[C@@H](Cc1c[nH]c2ccccc12)C(=O)N[C@@H](CCCNC(=N)N)C(=O)N[C@@H](CC(=O)O)C(=O)N[C@H](C(=O)N[C@@H](Cc1ccccc1)C(=O)N[C@@H](CC(C)C)C(=O)N[C@@H](CCCCN)C(=O)N[C@@H](CCCNC(=N)N)C(=O)N[C@@H](CCCCN)C(=O)O)[C@@H](C)CC)[C@@H](C)CC` [Peptide N7A], for which the EC50 came out at 203 nM. Compared with the last compound, the EC50 is about 1.6-fold higher. With `CC[C@H](C)[C@H](NC(=O)[C@H](CCCNC(=N)N)NC(=O)[C@H](Cc1c[nH]cn1)NC(=O)[C@H](CCCNC(=N)N)NC(=O)[C@@H](NC(=O)[C@@H](N)CC(=O)O)[C@@H](C)CC)C(=O)N[C@@H](CC(N)=O)C(=O)N[C@@H](C)C(=O)N[C@@H](CO)C(=O)N[C@H](C(=O)N[C@@H](Cc1c[nH]c2ccccc12)C(=O)N[C@@H](CCCNC(=N)N)C(=O)N[C@@H](CC(=O)O)C(=O)N[C@H](C(=O)N[C@@H](Cc1ccccc1)C(=O)N[C@@H](CC(C)C)C(=O)N[C@@H](CCCCN)C(=O)N[C@@H](CCCNC(=N)N)C(=O)N[C@@H](CCCCN)C(=O)O)[C@@H](C)CC)[C@@H](C)CC` [Peptide N8A], the EC50 amounted to 692 nM. The same measure, in the same setting: the same measure for `CC[C@H](C)[C@H](NC(=O)[C@H](CO)NC(=O)[C@H](CC(N)=O)NC(=O)[C@H](CC(N)=O)NC(=O)[C@@H](NC(=O)[C@H](CCCNC(=N)N)NC(=O)[C@H](Cc1c[nH]cn1)NC(=O)[C@H](CCCNC(=N)N)NC(=O)[C@@H](NC(=O)[C@@H](N)CC(=O)O)[C@@H](C)CC)[C@@H](C)CC)C(=O)N[C@@H](Cc1c[nH]c2ccccc12)C(=O)N[C@@H](C)C(=O)N[C@@H](CC(=O)O)C(=O)N[C@H](C(=O)N[C@@H](Cc1ccccc1)C(=O)N[C@@H](CC(C)C)C(=O)N[C@@H](CCCCN)C(=O)N[C@@H](CCCNC(=N)N)C(=O)N[C@@H](CCCCN)C(=O)O)[C@@H](C)CC` [Peptide R12A]: 127 nM. Compound `CC[C@H](C)[C@H](NC(=O)[C@H](CC(=O)O)NC(=O)[C@H](CCCNC(=N)N)NC(=O)[C@H](Cc1c[nH]c2ccccc12)NC(=O)[C@@H](NC(=O)[C@H](CO)NC(=O)[C@H](CC(N)=O)NC(=O)[C@H](CC(N)=O)NC(=O)[C@@H](NC(=O)[C@H](CCCNC(=N)N)NC(=O)[C@H](Cc1c[nH]cn1)NC(=O)[C@H](CCCNC(=N)N)NC(=O)[C@@H](NC(=O)[C@@H](N)CC(=O)O)[C@@H](C)CC)[C@@H](C)CC)[C@@H](C)CC)C(=O)N[C@@H](Cc1ccccc1)C(=O)N[C@@H](CC(C)C)C(=O)N[C@@H](CCCCN)C(=O)N[C@@H](C)C(=O)N[C@@H](CCCCN)C(=O)O` [Peptide R18A] returned an EC50 of 406 nM. The same measure, in the same setting: the same measure for `CC[C@H](C)[C@H](NC(=O)[C@H](CC(=O)O)NC(=O)[C@H](CCCNC(=N)N)NC(=O)[C@H](Cc1c[nH]c2ccccc12)NC(=O)[C@@H](NC(=O)[C@H](CO)NC(=O)[C@H](CC(N)=O)NC(=O)[C@H](CC(N)=O)NC(=O)[C@@H](NC(=O)[C@H](CCCNC(=N)N)NC(=O)[C@H](Cc1c[nH]cn1)NC(=O)[C@H](CCCNC(=N)N)NC(=O)[C@@H](NC(=O)[C@@H](N)CC(=O)O)[C@@H](C)CC)[C@@H](C)CC)[C@@H](C)CC)C(=O)N[C@@H](Cc1ccccc1)C(=O)N[C@@H](CC(C)C)C(=O)N[C@@H](CCCCN)C(=O)N[C@@H](CCCNC(=N)N)C(=O)O` [desK19]: 309 nM.

For a further experiment, the target named is T1, ComD. As to the kind of experiment: cell-based. This is another data set of the same source.
The IC50 is the concentration at which inhibition is half-maximal. A low value points to greater potency in that assay. Compound `CC[C@H](C)[C@H](N)C(=O)N[C@@H](CCCNC(=N)N)C(=O)N[C@@H](Cc1c[nH]cn1)C(=O)N[C@@H](CCCNC(=N)N)C(=O)N[C@H](C(=O)N[C@@H](CC(N)=O)C(=O)N[C@@H](CC(N)=O)C(=O)N[C@@H](CO)C(=O)N[C@H](C(=O)N[C@@H](Cc1c[nH]c2ccccc12)C(=O)N[C@@H](CCCNC(=N)N)C(=O)N[C@@H](CC(=O)O)C(=O)N[C@H](C(=O)N[C@@H](Cc1ccccc1)C(=O)N[C@@H](CC(C)C)C(=O)N[C@@H](CCCCN)C(=O)N[C@@H](CCCNC(=N)N)C(=O)N[C@@H](CCCCN)C(=O)O)[C@@H](C)CC)[C@@H](C)CC)[C@@H](C)CC` [desD1] gave an IC50 of 985 nM.
